Legend:
NIH3T3 cells = assay type: cell-based, mouse; conditions: different concentrations, within 48 hours
Method: 1.4.4. Cytotoxicity of Puerarin. The addition of puerarin and nanoPue to NIH3T3 cells was the same as the ROS assay. After 48 h of incubation, the culture medium was discarded and the cell layers were washed twice with PBS. Then 100 μL culture medium and 10 μL MTT solution (5 mg/mL) were added and incubated for 4 h at 37° C. After the supernatant was removed, 150 μL DMSO was added and OD value was determined at 492 nm by using a multidetection microplate reader (Plate CHAMELEONTM V-Hidex). The cell viability rate of each concentration was calculated according to formula (1).
Cell viability %=(ODdosing group/ODcontrol group)×100% (1)

[1] = literature statement; cited from earlier work
[2] = test system: TGF-β activated NIH3T3 cells; assay: ROS inhibition in TGF-β activated NIH3T3 cells (Fluorometric Hydrogen Peroxide Assay Kit); assay type: cell-based, mouse
Method: Based on literature and Chinese medicine pharmacology, 10 anti-fibrosis TCMs were selected to screen the ROS inhibition effects on TGF-β activated NIH3T3 cells. NIH3T3 cells were pre-stimulated with 10 ng/mL TGF-β for 24 h and 2×10^3 cells/well were seeded in a 96-well black plate. Then, the cells were treated with different TCMs. After these drugs were added, the cells were further cultured for 48 h. Then the concentration of ROS was determined with the Fluorometric Hydrogen Peroxide Assay Kit according to the manufacturer's instructions. The fluorescence intensity measured by using a fluorescence microplate reader (FLx800, Biotek Instrument Inc., Winooski, VT, USA) at excitation and emission wavelengths of 485 and 530 nm, respectively.

## Puerarin
NIH3T3 cells
  cytotoxicity in NIH3T3 cells (cell viability, MTT): no cytotoxicity
[1]
  solubility: poorly soluble
[2]; TGF-β activated NIH3T3 cells, different concentrations
  ROS inhibition activity at different concentrations: concentration-dependent ROS downregulation pattern
[2]; screen of ten natural compounds, 15 μg/mL, 48 h, compared with other natural compounds
  amount of ROS in TGF-β activated NIH3T3 cells: significantly reduced

From US20220193103A1, “NANO-PUERARIN REGULATES TUMOR MICROENVIRONMENT AND FACILITATES CHEMO- AND IMMUNOTHERAPY IN MURINE TRIPLE NEGATIVE BREAST CANCER MODEL” (The University of North Carolina at Chapel Hill, priority 2019, published 2022)
